In ChEMBL document CHEMBL1201862, “PubChem BioAssay data set” (2004):
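In this assay, cells in 96-well plates receive the compound at five concentrations for 48 hours. Endpoints are linearly interpolated between the surrounding concentrations. At the GI50, growth is halved.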 Active and inactive are the calls of the source. Cut-off read from the data, not from the text of the source: active = GI50 up to about 1.1 µM and inactive = higher.

Assays:
Experiment in all cases: NCI-60 cell line screen, 48 h
786-0 = test system: 786-0
A549 = test system: A549
ACHN = test system: ACHN
CCRF-CEM = test system: CCRF-CEM
COLO 205 = test system: COLO 205
DMS-114 = test system: DMS-114
DMS-273 = test system: DMS-273
EKVX = test system: EKVX
HCT-116 = test system: HCT-116
HCT-15 = test system: HCT-15
HL-60 = test system: HL-60
HOP-18 = test system: HOP-18
HOP-62 = test system: HOP-62
HT-29 = test system: HT-29
K562 = test system: K562
KM-20L2 = test system: KM-20L2
KM12 = test system: KM12
LOX IMVI = test system: LOX IMVI
LXFL 529 = test system: LXFL 529
M14 = test system: M14
M19-MEL = test system: M19-MEL
MOLT-4 = test system: MOLT-4
Malme-3M = test system: Malme-3M
NCI-H226 = test system: NCI-H226
NCI-H23 = test system: NCI-H23
NCI-H460 = test system: NCI-H460
NCI-H522 = test system: NCI-H522
OVCAR-4 = test system: OVCAR-4
OVCAR-8 = test system: OVCAR-8
RPMI-8226 = test system: RPMI-8226
RXF 393 = test system: RXF 393
SF-268 = test system: SF-268
SF-295 = test system: SF-295
SK-MEL-28 = test system: SK-MEL-28
SK-MEL-2 = test system: SK-MEL-2
SK-MEL-5 = test system: SK-MEL-5
SK-OV-3 = test system: SK-OV-3
SN12C = test system: SN12C
SNB-19 = test system: SNB-19
SNB-75 = test system: SNB-75
SNB-78 = test system: SNB-78
SR = test system: SR
SW-620 = test system: SW-620
TK-10 = test system: TK-10
U-251 = test system: U-251
UACC-257 = test system: UACC-257
UACC-62 = test system: UACC-62
UO-31 = test system: UO-31
XF498 = test system: XF498
A498 = test system: A498
DLD-1 = test system: DLD-1
HOP-92 = test system: HOP-92
IGROV-1 = test system: IGROV-1
OVCAR-5 = test system: OVCAR-5
SF-539 = test system: SF-539

SMILES: Cc1ccc(NC(=O)CSc2nnc(-c3ccc(/N=C\c4ccc(Cl)cc4)cc3)o2)cc1
- GI50 (786-0): > 100 µM (inactive)
- GI50 (A549): > 100 µM (inactive)
- GI50 (ACHN): > 100 µM (inactive)
- GI50 (CCRF-CEM): > 100 µM (inactive)
- GI50 (COLO 205): > 100 µM (inactive)
- GI50 (DMS-114): > 100 µM (inactive)
- GI50 (DMS-273): > 100 µM (inactive)
- GI50 (EKVX): > 100 µM (inactive)
- GI50 (HCT-116): > 100 µM (inactive)
- GI50 (HCT-15): > 100 µM
- GI50 (HL-60): > 100 µM (inactive)
- GI50 (HOP-18): > 100 µM (inactive)
- GI50 (HOP-62): > 100 µM (inactive)
- GI50 (HT-29): > 100 µM (inactive)
- GI50 (K562): > 100 µM (inactive)
- GI50 (KM-20L2): > 100 µM (inactive)
- GI50 (KM12): > 100 µM (inactive)
- GI50 (LOX IMVI): > 100 µM (inactive)
- GI50 (LXFL 529): > 100 µM (inactive)
- GI50 (M14): > 100 µM (inactive)
- GI50 (M19-MEL): > 100 µM (inactive)
- GI50 (MOLT-4): > 100 µM (inactive)
- GI50 (Malme-3M): > 100 µM (inactive)
- GI50 (NCI-H226): > 100 µM (inactive)
- GI50 (NCI-H23): > 100 µM (inactive)
- GI50 (NCI-H460): > 100 µM (inactive)
- GI50 (NCI-H522): 34.3 µM (inactive)
- GI50 (OVCAR-4): > 100 µM (inactive)
- GI50 (OVCAR-8): > 100 µM (inactive)
- GI50 (RPMI-8226): > 100 µM (inactive)
- GI50 (RXF 393): > 100 µM (inactive)
- GI50 (SF-268): > 100 µM (inactive)
- GI50 (SF-295): > 100 µM (inactive)
- GI50 (SK-MEL-28): > 100 µM (inactive)
- GI50 (SK-MEL-2): > 100 µM (inactive)
- GI50 (SK-MEL-5): > 100 µM (inactive)
- GI50 (SK-OV-3): > 100 µM (inactive)
- GI50 (SN12C): > 100 µM (inactive)
- GI50 (SNB-19): > 100 µM (inactive)
- GI50 (SNB-75): 72.8 µM (inactive)
- GI50 (SNB-78): > 100 µM (inactive)
- GI50 (SR): > 100 µM (inactive)
- GI50 (SW-620): > 100 µM (inactive)
- GI50 (TK-10): > 100 µM (inactive)
- GI50 (U-251): > 100 µM (inactive)
- GI50 (UACC-257): > 100 µM (inactive)
- GI50 (UACC-62): > 100 µM (inactive)
- GI50 (UO-31): > 100 µM (inactive)
- GI50 (XF498): > 100 µM (inactive)

SMILES: CC1(C)OC2C(O1)[C@H]1OC(C(Cl)(Cl)Cl)=N[C@H]1C(I)[C@H]2N1C(=O)c2ccccc2C1=O (stereo partly drawn)
- GI50 (786-0): > 100 µM (inactive)
- GI50 (A498): > 100 µM (inactive)
- GI50 (A549): 32.6 µM (inactive)
- GI50 (ACHN): 65.6 µM (inactive)
- GI50 (CCRF-CEM): 41.4 µM (inactive)
- GI50 (COLO 205): 33.6 µM (inactive)
- GI50 (DLD-1): > 100 µM (inactive)
- GI50 (DMS-114): 30.6 µM (inactive)
- GI50 (DMS-273): 52.1 µM (inactive)
- GI50 (EKVX): 79.3 µM (inactive)
- GI50 (HCT-116): 47.1 µM (inactive)
- GI50 (HCT-15): 55.1 µM
- GI50 (HL-60): 17.9 µM (inactive)
- GI50 (HOP-18): > 100 µM (inactive)
- GI50 (HOP-62): > 100 µM (inactive)
- GI50 (HOP-92): 40.6 µM (inactive)
- GI50 (HT-29): 59.4 µM (inactive)
- GI50 (IGROV-1): 25.5 µM (inactive)
- GI50 (K562): 36.7 µM (inactive)
- GI50 (KM-20L2): 60.4 µM (inactive)
- GI50 (KM12): 49.7 µM (inactive)
- GI50 (LOX IMVI): 51.2 µM (inactive)
- GI50 (LXFL 529): 50.2 µM (inactive)
- GI50 (M14): 69.3 µM (inactive)
- GI50 (M19-MEL): 69.8 µM (inactive)
- GI50 (MOLT-4): 26.1 µM (inactive)
- GI50 (NCI-H226): > 100 µM (inactive)
- GI50 (NCI-H23): 58.2 µM (inactive)
- GI50 (NCI-H460): 54.6 µM (inactive)
- GI50 (NCI-H522): 24.5 µM (inactive)
- GI50 (OVCAR-4): 24.1 µM (inactive)
- GI50 (OVCAR-5): > 100 µM (inactive)
- GI50 (OVCAR-8): > 100 µM (inactive)
- GI50 (RPMI-8226): 32.7 µM (inactive)
- GI50 (RXF 393): 28.9 µM (inactive)
- GI50 (SF-268): 71.6 µM (inactive)
- GI50 (SF-295): 56.4 µM (inactive)
- GI50 (SF-539): > 100 µM (inactive)
- GI50 (SK-MEL-28): 92.3 µM (inactive)
- GI50 (SK-MEL-5): 48.9 µM (inactive)
- GI50 (SN12C): 74.8 µM (inactive)
- GI50 (SNB-19): > 100 µM (inactive)
- GI50 (SNB-75): 56.9 µM (inactive)
- GI50 (SNB-78): 73.3 µM (inactive)
- GI50 (SR): 23.1 µM (inactive)
- GI50 (SW-620): > 100 µM (inactive)
- GI50 (U-251): 84.9 µM (inactive)
- GI50 (UACC-257): 36.1 µM (inactive)
- GI50 (UACC-62): 54.5 µM (inactive)
